# In patent publication US20240277873A1, “ULTRABRIGHT […] PROBES FOR DETECTION AND IMAGING” (Nanyang Technological University, priority 2021, published 2024):
# Where two headings read alike, the source gives them in different places.
# Assays:
# [1] = cited from earlier work
# [2] = Chemiluminescence and fluorescence changes of probes toward O2•- (KO2): response, selectivity, LOD; conditions: for LOD against O2•-: KO2 0-1000 nM, LOD=3σ/k; for LOD against O2•- / fluorescent signal enhancement upon cleavage by O2•-: PBS (10 mM, pH 7.4, 10% DMSO), 37° C.; for chemiluminescence intensity increase after addition of O2•- / fluorescent signal enhancement upon cleavage by O2•-: probe 20 μM; for chemiluminescence intensity increase after addition of O2•-: O2•- 40 μM for 10 s, PBS pH 7.4, 37° C., at 480 / 520 / 580 / 540 nm; for fluorescent signal enhancement upon cleavage by O2•-: at ~486 / 532 / 582 / 542 nm
# Experimental: The chemiluminescence and fluorescence changes of BOPDSu, BTPDSu, MBPDSu and MPDSu (20 μM) were recorded at different concentrations of RONS (40 μM) and other metal ions (100 μM). BOPDSu, BTPDSu, MBPDSu and MPDSu (20 μM) in phosphate buffered saline (PBS) buffer were treated in the presence of different RONS (40 μM), and metal ions (Mg^2+, Ca^2+ or Fe^2+, 100 μM) at 37° C.
# The chemiluminescence signals were recorded at different concentrations of KO2 (0, 50, 100, 250, 500 and 1000 nM). Then, the limit of detection (LOD) of BOPDSu, BTPDSu, MBPDSu and MPDSu were calculated by chemiluminescence intensities based on the equation: LOD=3σ/k, where σ is the standard deviation of emission intensity of blank, and k is the slope of plot of emission intensities.
# [3] = Chemiluminescence quantum yield in the presence of O2•-; type: physicochemical; conditions: probe 20 μM, O2•- 100 μM, PBS (10 mM, pH 7.4, 10% DMSO), 37° C.
# Experimental: (§1) The chemiluminescence QYs of BOPDSu, BTPDSu, MBPDSu, and MPDSu (20 μM) were measured in the presence of O2^•- (100 μM) in PBS (10 mM, pH 7.4, 10% DMSO) at 37° C. The fluorescence QYs were determined by using Rhodamine B as a standard dye (QY 36%) in PBS (10 mM, pH 7.4) (X. Zhen et al., ACS Nano 2016, 10, 6400-6409). The fluorescence QY of AMPD was obtained from the literature (O. Green et al., ACS Cent. Sci. 2017, 3, 349-358).
# [4] = Chemiluminescence kinetic studies (half-lives, CL emission) of caged probes in the presence of O2•-; type: physicochemical; conditions: caged probe after activation, in PBS (10% DMSO) at 37° C.
# Experimental: FIG. […]
# […] The chemiluminescent intensities were plotted as a function of time.
# […] The chemiluminescence signal was recorded by the microplate reader to calculate half-lives of BTPDSu at different pHs.
# [5] = Fluorescence quantum yield of activated probes; type: physicochemical; conditions: Rhodamine B as standard (QY 36%), PBS (10 mM, pH 7.4)
# Experimental: as §1
# [6] = tested on: dorsal skins of mice; assay: Histopathologic, immunohistochemical and flow cytometry analyses of dorsal skins (IMQ psoriasis model); type: in vivo, BALB/c mice
# Experimental: The control group was treated with Vaseline (50 mg/d) and the IMQ-treatment group was applied with IMQ cream (60 mg/d, 5%) once a day. […] Probe BTPDNe (10 uM, 1 mM in DMSO) was thoroughly mixed with Aquaphor (˜10 mg) and applied for psoriasis imaging, followed by poly(methyl methacrylate) microneedle treatment for 1 min. Then, chemiluminescent signals at different time-points (0, 3, 5, 10, 15, 30, 45 and 60 min) after probe-treatment were recorded using IVIS system bioluminescence with acquiring time of 180 s. Until the third day, all the mice were sacrificed to collect tissue and blood for further experiments (hematoxylin and eosin (H&E) staining and flow cytometry analysis) as described in Example 11.
# The dorsal skin samples were separated and soaked in 4% paraformaldehyde (4% PFA) for 12 h and immersed in 30% sucrose solution. The skin samples were stained by hematoxylin and eosin (H&E). Then, the samples were flash-frozen by liquid nitrogen, immobilized with optimal cutting temperature compound, and section slices ([…]). The thickness of epidermis was observed under a microscope (Nikon ECLIPSE 80i microscope). APC-Ly6G, as a neutrophil marker, was used to stain neutrophil cells and DAPI was applied for cell nucleus staining. The immunofluorescence was observed by Nikon ECLIPSE 80i microscope.
# After performing in vivo chemiluminescence imaging of neutrophils using BTPDNe in psoriasis-bearing mice with 2 day IMQ treatment, fresh section slices from dorsal skins were stained with Ly6G. Immunofluorescence imaging of slices with activated BTPDNe in green color was observed upon excitation at 405 nm and emission at 500-550 nm, while red color from Ly6G was observed upon excitation from 633-647 nm and emission at 660 nm. The immunofluorescence imaging was acquired by Nikon ECLIPSE 80i microscope.
# [7] = uncaged, in PBS (5% DMSO), pH 7.4, 37° C.
# [8] = uncaged, in PBS (10% DMSO), pH 7.4, 37° C.
# [9] = uncaged, in PBS (10% DMSO), pH 10, 37° C.
# [10] = uncaged, in PBS, pH 7.4, 10% FBS
compound,measurement,setting,value
CC(=O)Oc1cc(C23OCC(C)(C)C2(C(C)(C)C)OO3)cc2ccc(=O)oc12 (stereo not drawn),CL Emission,"[1]; caged, after activation, in DMSO with 170 μM TBAF at 25° C.",470 nm
COC1(c2ccc(/C=C/C#N)c(O)c2Cl)OOC12C1CC3CC(C1)CC2C3 (stereo not drawn) [drawing 51],CL Emission,[1]; [7],525 nm
COC1(c2ccc(/C=C/c3ccc(CC(=O)O)cc3)c(O)c2Cl)OOC12C1CC3CC(C1)CC2C3 (stereo not drawn),CL Emission,[1]; [8],500 nm
same,CL Emission,[1]; [9],500 nm
benzoxazole-phenoxyl-dioxetane [BOPDSu],LOD against O2•-,[2],~5.7 nM
same,chemiluminescence intensity increase after addition of O2•-,[2],3291 times
same,fluorescent signal enhancement upon cleavage by O2•-,[2],45.3 folds
same,"ΦCl, chemiluminescence QY",[3],0.189 einsteins/mol
COC(=O)/C=C/c1ccc(C2(OC)OOC23C2CC4CC(C2)CC3C4)c(Cl)c1O (stereo not drawn) [drawing 49],CL Emission,[1]; [8],540 nm
same,CL Emission,[1]; [9],550 nm
COC1(c2ccc(/C=C/c3ccc(C(=O)O)cc3)c(O)c2Cl)OOC12C1CC3CC(C1)CC2C3 (stereo not drawn),CL Emission,[1]; [8],535 nm
same,CL Emission,[1]; [9],535 nm
1-methylpyridinium-benzothiazole-phenoxyl-dioxetane [MBPDSu],LOD against O2•-,[2],6.3 nM
same,chemiluminescence intensity increase after addition of O2•-,[2],2590 times
same,fluorescent signal enhancement upon cleavage by O2•-,[2],40.5 folds
same,CL Emission,[4],580 nm
same,"ΦCl, chemiluminescence QY",[3],0.045 einsteins/mol
COC(=O)c1cc(O)c(-c2nc3ccccc3s2)cc1/C=C/c1cc[n+](C)cc1.[I-] [AMBPD],"ΦFl, fluorescence QY of activated probe",[5],7.5%
"methyl acrylate-phenoxyl-dioxetane [MPDSu, reference compound]",LOD against O2•-,[2],13.6 nM
same,chemiluminescence intensity increase after addition of O2•-,[2],2624 times
same,fluorescent signal enhancement upon cleavage by O2•-,[2],11.2 folds
same,"ΦCl, chemiluminescence QY",[3],0.023 einsteins/mol
COC1(c2ccc(/C=C/c3ccc(OCC(=O)O)cc3)c(O)c2Cl)OOC12C1CC3CC(C1)CC2C3 (stereo not drawn),CL Emission,[1]; [8],490 nm
same,CL Emission,[1]; [9],490 nm
"CC(C)Cn1cnc2c(N)nc3ccccc3c21 [IMQ, Imiquimod]",population of NE-expressing neutrophils in skins relative to CsA-treated group,"[6]; day 2, flow cytometry",2.62 times
same,population of NE-expressing neutrophils in skins relative to control group,"[6]; day 2, flow cytometry",2.03 times
same,"skin thickness and neutrophil (CD11c+, Ly6G+) population / infiltration","[6]; dorsal skins, histology and immunohistochemistry, vs control group","increased thickness and neutrophil (CD11c+, Ly6G+) infiltration"
COC1(c2cc(O)cc3oc(=O)ccc23)OOC12C1CC3CC(C1)CC2C3 (stereo not drawn),CL Emission,[1]; [8],465 nm
COC1(c2cccc(O)c2Cl)OOC12C1CC3CC(C1)CC2C3 (stereo not drawn),CL Emission,[1]; [7],470 nm
same,CL Emission,"[1]; uncaged, in PBS (5% DMSO), pH 10, 37° C.",470 nm
COC1(c2cc(O)c(/C=C/C(=O)O)cc2/C=C/C2=CC(=C(C#N)C#N)c3ccccc3O2)OOC12C1CC3CC(C1)CC2C3 (stereo not drawn),CL Emission,[1]; [10],690 nm
COC(=O)c1ccc(-c2nc3ccccc3s2)c(O)c1 [ABTPD],"ΦFl, fluorescence QY of activated probe",[5],24.1%
COC1(c2cccc(O)c2)OOC12C1CC3CC(C1)CC2C3 (stereo not drawn),CL Emission,"[1]; uncaged, in o-Xylene at 25° C.",~460 nm
COC1(c2ccc(/C=C/C#N)c(OC(=O)c3ccccc3P(c3ccccc3)c3ccccc3)c2Cl)OOC12C1CC3CC(C1)CC2C3 (stereo not drawn),CL Emission,"[1]; caged, after activation, in 20 mM HEPES or PBS (pH 7.4), 1% DMSO",525 nm
COC(=O)/C=C/c1ccc(C2(OC)OOC23C2CC4CC(C2)CC3C4)c(Cl)c1O (stereo not drawn) [drawing 50],CL Emission,[1]; [7],540 nm
COC1(c2cc(O)ccc2/C=C/C2=CC(=C(C#N)C#N)c3ccccc3O2)OOC12C1CC3CC(C1)CC2C3 (stereo not drawn),CL Emission,[1]; [10],660 nm
COC1(c2ccc(/C=C/C(=O)O)c(O)c2Cl)OOC12C1CC3CC(C1)CC2C3 (stereo not drawn),CL Emission,[1]; [8],510 nm
same,CL Emission,[1]; [9],510 nm
COC1(c2ccc(/C=C/C#N)c(O)c2Cl)OOC12C1CC3CC(C1)CC2C3 (stereo not drawn) [drawing 52],CL Emission,[1]; [8],525 nm
same,CL Emission,[1]; [9],525 nm
COC(=O)c1ccc(-c2nc3ccccc3o2)c(O)c1 [ABOPD],"ΦFl, fluorescence QY of activated probe",[5],33.0%
COC1(c2ccc(/C=C/C#N)c(OCc3ccc4c(c3)C(=O)C(=O)N4)c2Cl)OOC12C1CC3CC(C1)CC2C3 (stereo not drawn),CL Emission,"[1]; caged, after activation, in 20 mM HEPES (pH 7.4), 1% DMSO",525 nm
